From US20250186463A1, “ABIRATERONE DECANOATE PRODRUGS AND USE IN THERAPY” (PROPELLA THERAPEUTICS, INC., priority 2022, published 2025)
Marks after values point to notes of the source that are not given here.

What was measured:
serum progesterone = assay: Phase 1/2a study: serum progesterone; type: in vivo, human
Protocol: (§1) This is a Phase 1/2a, Open-label, Multicenter Study of Intramuscular Abiraterone Decanoate Depot in Patients with Advanced Prostate Cancer.
(§2) Formulations and dosing regimen: The formulation used in the study (abiraterone decanoate for intramuscular [i.m.] injection) is a solution formulation of abiraterone decanoate at a concentration of 180 mg/mL and will be provided as a 10 mL vial containing 990 mg of abiraterone decanoate in 5.5 mL of solution. See further details of the formulations in Example 2 (for each milliliter: Abiraterone Decanoate, about 180 mg/mL; Benzyl Alcohol, about 100 mg/mL; Benzyl Benzoate, about 200 mg/mL; and Corn oil, q.s. to 1 mL). Abiraterone Decanoate will be administered as an i.m. injection every 84 days (±3 days). Dose escalation will proceed with a modified Fibonacci sequence. Based on emerging data, intermediate doses may be evaluated.
(§3) Study Design: This is a Phase 1/2a, Open-label, Multicenter Study of Intramuscular Abiraterone Decanoate Depot in Patients with Advanced Prostate Cancer. In Phase 1, all patients will receive i.m. Abiraterone Decanoate depot in 84-day treatment cycles combined with daily oral prednisone or dexamethasone. In Phase 2a, patients will be randomized 1:1 and treated with i.m. Abiraterone Decanoate depot in 84-day treatment cycles in combination with dexamethasone (Arm A) or abiraterone acetate daily+prednisone (Arm B). In both Phases, patients will undergo scheduled periodic assessments of serum testosterone levels. Participants may continue treatment until they meet any discontinuation criteria outlined in the protocol.
(§4) Pharmacodynamic Analysis: Determination of Prostate Specific Antigen (PSA), serum testosterone, dehydroepiandrosterone (DHEA), dehydroepiandrosterone sulfate (DHEA-S), androstenedione, dihydrotestosterone (DHT), progesterone, cortisol, adrenocorticotropic hormone (ACTH), corticosterone, 11-dexoycorticosterone (11-DOC) and 11-deoxycortisol.
(§5) Based on the available data, the recommended dose for Phase 2 is about 1260 mg abiraterone decanoate once every three months (12 weeks). All cohorts 1 and 2 in this clinical study were treated with prednisone, 5 mg orally once or twice daily; and all cohorts 3-5 were treated with dexamethasone, 0.5 mg orally once daily. The results shown herein for these cohorts should be understood accordingly.
(§6) See also Table 3B below. […] See also FIG. 11B for the absolute serum progesterone levels for cohorts 4 and 5, with the LLOQ being 1.59 nM. It should be noted that the maximum serum progesterone level observed for cohorts 1-3 is 2.5 nM. FIGS. 3F and 3G show the serum 11-deoxycorticosterone and corticosterone response in cohorts 3, 4, and 5, the trend is similar to that observed for progesterone levels above. See a summary shown in the Table 3C below for the first cycle.

[1] = Phase 1/2a study: plasma pharmacokinetics; type: in vivo, human; conditions: cohort 3 (720 mg), patient 08-1301, all values
Protocol: as §2
Pharmacokinetic results: the partial results from pharmacokinetic analysis for cohorts 1, 2, 3, 4, and 5 (180 mg, 360 mg, 720 mg, 1260 mg, and 1800 mg abiraterone decanoate, respectively) are shown in FIGS. 4A-4E. […] And for abiraterone decanoate, minimal increase in AbiDec for 08-1301 was observed which declined to 0 ng/ml thereafter.

[2] = Abiraterone plasma exposure in monkeys, vehicle comparison; type: in vivo; conditions: corn oil 70%, benzyl benzoate 20%, same concentration and dose
Text: In some embodiments, the abiraterone prodrug formulation can comprise a combination of benzyl alcohol and benzyl benzoate as cosolvents. In some embodiments, the benzyl alcohol can be present in an amount of about 0-20% (e.g., 0-15% or 0-10%, such as about 10%) of the solvent, and benzyl benzoate can be present in an amount of about 0-50% (e.g., 0-35% or 0-30%, such as about 20%) of the solvent, wherein the balance of the solvent can be any one or more of the pharmaceutically acceptable oil described herein, such as corn oil, castor oil, sesame oil, peanut oil, cottonseed oil, and/or Miglyol 812, etc.

serum corticosterone = assay: Phase 1/2a study: serum corticosterone; type: in vivo, human
Protocol: as §1, §2, §3, §4, §5, §6

SMILES: CCCCCCCCCC(=O)O[C@H]1CC[C@@]2(C)C(=CC[C@@H]3[C@@H]2CC[C@]2(C)C(c4cccnc4)=CC[C@@H]32)C1 [abiraterone decanoate]
- Serum Progesterone (% CFB) (serum progesterone; Cohort 4, 1260 mg i.m., Study Day 252): 0%
- Serum Progesterone (% CFB) (serum progesterone; Cohort 5, 1800 mg i.m., Study Day 1 (baseline)): 0%
- Serum Progesterone (% CFB) (serum progesterone; Cohort 5, 1800 mg i.m., Study Day 14): 165%
- Serum Progesterone (% CFB) (serum progesterone; Cohort 5, 1800 mg i.m., Study Day 28): 86%
- Serum Progesterone (% CFB) (serum progesterone; Cohort 5, 1800 mg i.m., Study Day 42): 0%
- Serum Progesterone (% CFB) (serum progesterone; Cohort 5, 1800 mg i.m., Study Day 56): 12%
- Serum Progesterone (% CFB) (serum progesterone; Cohort 5, 1800 mg i.m., Study Day 70): 0%
- Serum Progesterone (% CFB) (serum progesterone; Cohort 5, 1800 mg i.m., Study Day 84): 8%
- Serum Progesterone (% CFB) (serum progesterone; Cohort 5, 1800 mg i.m., Study Day 140): 0%
- Serum Progesterone (% CFB) (serum progesterone; Cohort 5, 1800 mg i.m., Study Day 168): −7%
- Serum Progesterone (% CFB) (serum progesterone; Cohort 5, 1800 mg i.m., Study Day 196): 52%
- Serum Progesterone (% CFB) (serum progesterone; Cohort 5, 1800 mg i.m., Study Day 224): −7%
- Serum Progesterone (% CFB) (serum progesterone; Cohort 5, 1800 mg i.m., Study Day 252): 0%
- progesterone change from baseline (serum progesterone; Patient 1, cohort 1, 180 mg, FIG. 5): no progesterone increase from baseline
- transient up stream steroid (progesterone) increase from baseline (serum progesterone; Patient 2, cohort 2, 360 mg, FIG. 6): returned to baseline
- increases of progesterone levels during the second cycle (serum progesterone; all cohorts): no significant increases
- progesterone changes from baseline (serum progesterone; all cohorts (180-1800 mg)): not significant
- time at which progesterone level returned to baseline (serum progesterone; cohort 5 (1800 mg), after first administration): ~6 week
- maximum serum progesterone level observed (serum progesterone; cohorts 1-3 (180, 360, 720 mg)): 2.5 nM
- Progesterone at Visit Day (nM) (serum progesterone; patient 02-1403, Cohort 4, 1260 mg, mCRPC, Visit C4D28, assay LLOQ = 1.59 nM): <LLOQ
- Progesterone at Visit Day (nM) (serum progesterone; patient 02-1405, Cohort 4, 1260 mg, mCRPC, Visit C1D56, assay LLOQ = 1.59 nM): <LLOQ
- Progesterone at Visit Day (nM) (serum progesterone; patient 02-1504, Cohort 5, 1800 mg, mCRPC, Visit C1D28, assay LLOQ = 1.59 nM): <LLOQ
- Progesterone at Visit Day (nM) (serum progesterone; patient 04-1406, Cohort 4, 1260 mg, mCSPC, Visit C1D56, average of Day 28 and Day 70 values): 2.90† nM
- Progesterone at Visit Day (serum progesterone; patient 04-1503, Cohort 5, 1800 mg, mCSPC, Visit C1D84, assay LLOQ = 1.59 nM): 2.54 nM
- Progesterone at Visit Day (nM) (serum progesterone; patient 04-1506, Cohort 5, 1800 mg, mCRPC, Visit C1D28, assay LLOQ = 1.59 nM): <LLOQ
- Progesterone at Visit Day (nM) (serum progesterone; patient 06-1401, Cohort 4, 1260 mg, mCRPC, Visit C3D84, assay LLOQ = 1.59 nM): <LLOQ
- Progesterone at Visit Day (nM) (serum progesterone; patient 06-1402, Cohort 4, 1260 mg, mCRPC, Visit C4D28, assay LLOQ = 1.59 nM): <LLOQ
- Progesterone at Visit Day (nM) (serum progesterone; patient 06-1404, Cohort 4, 1260 mg, mCSPC, Visit C2D84, assay LLOQ = 1.59 nM): <LLOQ
- Progesterone at Visit Day (nM) (serum progesterone; patient 06-1501, Cohort 5, 1800 mg, mCRPC, Visit C1D84, assay LLOQ = 1.59 nM): <LLOQ
- Progesterone at Visit Day (nM) (serum progesterone; patient 06-1502, Cohort 5, 1800 mg, mCSPC, Visit C2D84, assay LLOQ = 1.59 nM): <LLOQ
- plasma abiraterone values [1]: below the LLOQ
- abiraterone plasma exposure versus corn oil 90% / benzyl alcohol 10% formulation [2]: much higher abiraterone plasma exposure
- Corticosterone Changes during cycle 1, Percent (%) (serum corticosterone; 720 mg (N = 4), Day 14): 48%
- Corticosterone Changes during cycle 1, Percent (%) (serum corticosterone; 720 mg (N = 4), Day 28): 27%
- Corticosterone Changes during cycle 1, Percent (%) (serum corticosterone; 720 mg (N = 4), Day 56): 9%
- Corticosterone Changes during cycle 1, Percent (%) (serum corticosterone; 720 mg (N = 4), Day 84): −33%
- Corticosterone Changes during cycle 1, Percent (%) (serum corticosterone; 1,260 mg (N = 6), Day 14): 184%
- Corticosterone Changes during cycle 1, Percent (%) (serum corticosterone; 1,260 mg (N = 6), Day 28): 490%
- Corticosterone Changes during cycle 1, Percent (%) (serum corticosterone; 1,260 mg (N = 6), Day 56): 19%
- Corticosterone Changes during cycle 1, Percent (%) (serum corticosterone; 1,260 mg (N = 6), Day 84): 32%
- Corticosterone Changes during cycle 1, Percent (%) (serum corticosterone; 1,800 mg (N = 8), Day 14): 455%
- Corticosterone Changes during cycle 1, Percent (%) (serum corticosterone; 1,800 mg (N = 8), Day 28): 259%
- Corticosterone Changes during cycle 1, Percent (%) (serum corticosterone; 1,800 mg (N = 8), Day 56): 54%
- Corticosterone Changes during cycle 1, Percent (%) (serum corticosterone; 1,800 mg (N = 8), Day 84): 109%
